For one data set, the target named is T1, ovine COX-2 (Ovis aries, UniProt P79208).
T1 sequence (P79208 17-603): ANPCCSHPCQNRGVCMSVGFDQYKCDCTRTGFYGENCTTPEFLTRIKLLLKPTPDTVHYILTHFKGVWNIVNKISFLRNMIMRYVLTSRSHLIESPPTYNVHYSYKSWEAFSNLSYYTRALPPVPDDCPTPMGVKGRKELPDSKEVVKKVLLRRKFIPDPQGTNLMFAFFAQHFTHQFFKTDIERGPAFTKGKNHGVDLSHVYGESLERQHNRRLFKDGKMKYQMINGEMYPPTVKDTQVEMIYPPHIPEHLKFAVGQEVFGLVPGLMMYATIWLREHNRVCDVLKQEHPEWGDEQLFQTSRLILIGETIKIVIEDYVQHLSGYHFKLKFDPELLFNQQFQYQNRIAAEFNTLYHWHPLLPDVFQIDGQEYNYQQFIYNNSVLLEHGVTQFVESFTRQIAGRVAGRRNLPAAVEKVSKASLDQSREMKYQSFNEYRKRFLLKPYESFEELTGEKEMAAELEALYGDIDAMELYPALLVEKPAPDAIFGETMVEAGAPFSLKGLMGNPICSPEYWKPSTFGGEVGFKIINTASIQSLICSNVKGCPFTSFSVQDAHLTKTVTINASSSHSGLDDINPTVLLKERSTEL
The data set is described as follows: In vitro COX-2 inhibition assay (EIA kit, Cayman). Conditions: for IC50: IC50 COX-2, ovine COX-2, mean of two determinations; for SI, COX-2 selectivity index (COX-1 IC50/COX-2 IC50): ovine enzymes.

The test system of data set [1] is carrageenan-induced paw oedema. The data set is described as follows: Carrageenan-induced rat paw oedema. Format: in vivo. As to conditions: 50 mg/kg oral; for %Inhibition of paw oedema, 1h / Paw thickness change mean ± SEM, 1h: 1 h after carrageenan; for %Inhibition of paw oedema, 3h / Paw thickness change mean ± SEM, 3h: 3 h after carrageenan; for Paw thickness change mean ± SEM, 3h / Paw thickness change mean ± SEM, 1h / Paw thickness change mean ± SEM, 5h: n = 4; for %Inhibition of paw oedema, 5h / Paw thickness change mean ± SEM, 5h: 5 h after carrageenan. As for the experimental part:
Female wister rats (150-200 g) were used in this study. The animals were kept at controlled conditions (temperature 23 ± 2 °C, humidity 60 ± 10%) and a 12/12-h light/dark cycle with access to food and water. All procedures relating to animal care and treatments were performed according to protocols approved by the Research Ethical Committee of Faculty of Pharmacy Beni-Suef University (2014-Beni-Suef, Egypt). The anti-inflammatory activity of the synthesised compounds was determined in vivo by […]-induced paw oedema method in rats[49]. Rats were divided into 21 groups of four animals each, and then, they were fasted overnight with free access to water before the experiment. Before any drug administration, thickness of the left hind paw of each rat was measured in millimetres. Group 1 served as a control and administered the vehicle (2.5% Tween 80).
On the technique in general: Carrageenan injected into the paw causes an acute inflammation.

For another data set, the target named is T2, ovine COX-1 (Ovis aries, UniProt P05979).
T2 sequence (P05979 25-600): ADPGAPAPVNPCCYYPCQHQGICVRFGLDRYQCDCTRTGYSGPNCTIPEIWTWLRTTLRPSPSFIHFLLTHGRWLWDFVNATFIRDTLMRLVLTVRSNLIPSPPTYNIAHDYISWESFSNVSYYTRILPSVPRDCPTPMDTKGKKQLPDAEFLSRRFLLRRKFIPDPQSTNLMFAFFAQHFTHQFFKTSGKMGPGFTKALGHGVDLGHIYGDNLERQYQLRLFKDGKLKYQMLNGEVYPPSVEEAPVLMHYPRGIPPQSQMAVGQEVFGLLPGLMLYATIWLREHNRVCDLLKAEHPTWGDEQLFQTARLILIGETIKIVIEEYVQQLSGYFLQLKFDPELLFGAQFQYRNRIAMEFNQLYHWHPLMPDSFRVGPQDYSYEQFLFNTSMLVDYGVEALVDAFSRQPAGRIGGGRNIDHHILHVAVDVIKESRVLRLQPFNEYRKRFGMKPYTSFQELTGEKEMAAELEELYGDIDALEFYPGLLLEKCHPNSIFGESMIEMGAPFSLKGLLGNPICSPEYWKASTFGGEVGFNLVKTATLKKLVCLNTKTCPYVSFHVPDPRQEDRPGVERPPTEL
The data set is described as follows: In vitro COX-1 inhibition assay (EIA kit, Cayman).

The values below come from article PMC6445242, “Novel tetrazole and cyanamide derivatives as inhibitors of cyclooxygenase-2 enzyme: design, synthesis, anti-inflammatory evaluation, ulcerogenic liability and docking study” (Journal of Enzyme Inhibition and Medicinal Chemistry, 2017).

Description for ovine COX-1: (§1) The peroxidase activity of cyclooxygenase enzyme isoforms was measured using the COX activity assay kit. The ability of the test compounds to inhibit both ovine COX-1 and COX-2 enzymes was explored in vitro using a colorimetric enzyme immunoassay (EIA) kit. The appearance of oxidised N,N,N′,N′-tetramethyl-p-phenylenediamine (TMPD) was monitored at 590 nm. The kit includes isozyme-specific inhibitors for distinguishing COX-2 activity from that of COX-1.
Description for ovine COX-2: as §1

`COc1ccc(/C=C/C(=O)c2ccc(-n3cnnn3)cc2)cc1OC` [Compound 3a, (ZE)-1-[4-(1H-Tetrazol-1-yl)phenyl]-3-(3,4-dimethoxyphenyl)prop-2-en-1-one]: the melting point (usually the temperature, or range, at which the solid turns liquid) fell in the range of 214 to 216 °C. For the same molecule, on ovine COX-2, the half-inhibitory concentration (IC50) (usually the point on the concentration scale where inhibition reaches its midpoint) was 570 nM and the “SI, COX-2 selectivity index (COX-1 IC50/COX-2 IC50)” value stood at 22. In data set [1], the “%Inhibition of paw oedema, 1h” value was determined as 25%; the “%Inhibition of paw oedema, 3h” value is listed as 9%; the “Paw thickness change mean ± SEM, 3h” value was 1.53 ± 0.09 mm. Moreover, the IC50 against ovine COX-1 worked out at 12500 nM.

On to `COc1cc(/C=C/C(=O)c2ccc(-n3cnnn3)cc2)cc(OC)c1OC` [Compound 3b, (ZE)-1-[4-(1H-Tetrazol-1-yl)phenyl]-3-(3,4,5-trimethoxyphenyl)prop-2-en-1-one], for which the melting point was 215 to 217 °C. In addition, at ovine COX-2, the IC50 worked out at 240 nM and the “SI, COX-2 selectivity index (COX-1 IC50/COX-2 IC50)” value was 28.08. For the same molecule, in data set [1], the “%Inhibition of paw oedema, 1h” value was 54%; the “Paw thickness change mean ± SEM, 1h” value was 0.73 ± 0.08 mm; the “%Inhibition of paw oedema, 3h” value is given as 13%; the “Paw thickness change mean ± SEM, 3h” value is 1.45 ± 0.18 mm. In addition, in data set [1], the “%Inhibition of paw oedema, 5h” value is recorded as 0% and the “Paw thickness change mean ± SEM, 5h” value was determined as 1.33 ± 0.08 mm. The molecule also came in with an IC50 on ovine COX-1 of 6740 nM.

`N#Cc1c(-c2ccccc2)cc(-c2ccc(-n3cnnn3)cc2)nc1N` [Compound 4a, 6-[4-(1H-Tetrazol-1-yl)phenyl]-2-amino-4-phenylnicotinonitrile]: the melting point was in the range of 238 to 240 °C. In addition, at ovine COX-2, it took 430 nM to reach half-maximal inhibition (IC50) and the “SI, COX-2 selectivity index (COX-1 IC50/COX-2 IC50)” value was 14.48. Besides, in data set [1], the “%Inhibition of paw oedema, 1h” value was found to be 51%; the “Paw thickness change mean ± SEM, 1h” value amounted to 0.78 ± 0.08 mm; the “%Inhibition of paw oedema, 3h” value was found to be 10%; the “Paw thickness change mean ± SEM, 3h” value is reported as 1.50 ± 0.19 mm. Moreover, in data set [1], the “%Inhibition of paw oedema, 5h” value was 0% and the “Paw thickness change mean ± SEM, 5h” value was found to be 1.33 ± 0.05 mm. Besides, the concentration for half-maximal inhibition (IC50) on ovine COX-1 worked out at 6230 nM.

The molecule `N#Cc1c(-c2cccnc2)cc(-c2ccc(-n3cnnn3)cc2)nc1N` [Compound 4b, 6′-[4-(1H-Tetrazol-1-yl)phenyl]-2′-amino-[3,4′-bipyridine]-3′-carbonitrile] showed a melting point of 238 to 240 °C. Besides, at ovine COX-2, the IC50 was determined as 270 nM and the “SI, COX-2 selectivity index (COX-1 IC50/COX-2 IC50)” value came to 22.62. In data set [1], the “%Inhibition of paw oedema, 1h” value is listed as 19%; the “Paw thickness change mean ± SEM, 1h” value is recorded as 1.28 ± 0.10 mm; the “%Inhibition of paw oedema, 3h” value is 9%; the “Paw thickness change mean ± SEM, 3h” value was found to be 1.53 ± 0.08 mm. Also, in data set [1], the “%Inhibition of paw oedema, 5h” value was found to be 4% and the “Paw thickness change mean ± SEM, 5h” value amounted to 1.28 ± 0.14 mm. Further, on ovine COX-1, inhibition was half-maximal at 6110 nM (IC50).

Regarding `N#Cc1c(-c2cccnc2)cc(-c2ccc(-n3cnnn3)cc2)nc1O` [Compound 5b, 6′-[4-(1H-Tetrazol-1-yl)phenyl]-2′-hydroxy-[3,4′-bipyridine]-3′-carbonitrile], the melting point was in the range of 287 to 289 °C. For the same molecule, at ovine COX-2, half-maximal inhibition (IC50) was put at 1140 nM and the “SI, COX-2 selectivity index (COX-1 IC50/COX-2 IC50)” value was determined as 10.88. Further, in data set [1], the “%Inhibition of paw oedema, 1h” value is 38%; the “Paw thickness change mean ± SEM, 1h” value is on record as 0.98 ± 0.18 mm; the “%Inhibition of paw oedema, 3h” value was found to be 33%; the “Paw thickness change mean ± SEM, 3h” value stood at 1.13 ± 0.15 mm. In data set [1], the “%Inhibition of paw oedema, 5h” value amounted to 17% and the “Paw thickness change mean ± SEM, 5h” value is reported as 1.10 ± 0.15 mm. For the same molecule, 12400 nM corresponded to half-maximal inhibition at ovine COX-1 (IC50).

The molecule `COc1ccc(-c2cc(-c3ccc(-n4cnnn4)cc3)[nH]c(=O)c2C#N)cc1` [Compound 5c, 6-[4-(1H-Tetrazol-1-yl)phenyl]-4-(4-methoxyphenyl)-2-oxo-1,2-dihydropyridine-3-carbonitrile] gave a melting point of over 300 °C. In addition, at ovine COX-2, 710 nM corresponded to half-maximal inhibition (IC50) and the “SI, COX-2 selectivity index (COX-1 IC50/COX-2 IC50)” value came out at 15.81. In addition, in data set [1], the “%Inhibition of paw oedema, 1h” value came to 57%; the “Paw thickness change mean ± SEM, 1h” value is on record as 0.68 ± 0.09 mm; the “%Inhibition of paw oedema, 3h” value was found to be 30%; the “Paw thickness change mean ± SEM, 3h” value was determined as 1.18 ± 0.11 mm. In addition, in data set [1], the “%Inhibition of paw oedema, 5h” value came out at 14% and the “Paw thickness change mean ± SEM, 5h” value is 1.15 ± 0.05 mm. The midpoint of inhibition on ovine COX-1, the IC50, lay at 11200 nM.

Molecule `C/C(=N\Nc1ccc(S(C)(=O)=O)cc1)c1ccc(-n2cnnn2)cc1` [Compound 6a, (ZE)-1-{4-[1-(2-(4-Methanesulphonylphenyl)hydrazono)ethyl]phe-nyl}-1H-tetrazole] had a melting point of 258 to 260 °C. In addition, on ovine COX-2, the IC50 came out at 380 nM and the “SI, COX-2 selectivity index (COX-1 IC50/COX-2 IC50)” value is listed as 24.23. Besides, in data set [1], the “%Inhibition of paw oedema, 1h” value is recorded as 30%; the “Paw thickness change mean ± SEM, 1h” value is given as 1.10 ± 0.23 mm; the “%Inhibition of paw oedema, 3h” value is reported as 42%; the “Paw thickness change mean ± SEM, 3h” value was 0.98 ± 0.23 mm. For the same molecule, in data set [1], the “%Inhibition of paw oedema, 5h” value was 4% and the “Paw thickness change mean ± SEM, 5h” value amounted to 1.28 ± 0.08 mm. Also, the IC50 against ovine COX-1 is 9210 nM.

`C/C(=N\Nc1ccc(S(N)(=O)=O)cc1)c1ccc(-n2cnnn2)cc1` [Compound 6b] registered a melting point of 255 to 257 °C. Further, at ovine COX-2, the half-inhibitory concentration (IC50) was 510 nM and the “SI, COX-2 selectivity index (COX-1 IC50/COX-2 IC50)” value came to 25.27. For the same molecule, in data set [1], the “Paw thickness change mean ± SEM, 1h” value was found to be 0.80 ± 0.26 mm; the “%Inhibition of paw oedema, 3h” value worked out at 37%; the “Paw thickness change mean ± SEM, 3h” value amounted to 1.05 ± 0.09 mm; the “%Inhibition of paw oedema, 5h” value was 12%. Moreover, the “Paw thickness change mean ± SEM, 5h” value in data set [1] is listed as 1.18 ± 0.13 mm. For the same molecule, the IC50 against ovine COX-1 amounted to 12900 nM.

On to `COc1ccc(/C=C/C(=O)c2ccc(NC#N)cc2)cc1OC` [Compound 7a, (ZE)-N-{4-[3–(3,4-Dimethoxyphenyl)acryloyl]phenyl}cyanamide], for which the melting point lay within 112 to 114 °C. On ovine COX-2, half-maximal inhibition (IC50) required 260 nM and the “SI, COX-2 selectivity index (COX-1 IC50/COX-2 IC50)” value came to 13.26. Besides, in data set [1], the “%Inhibition of paw oedema, 1h” value is recorded as 24%; the “Paw thickness change mean ± SEM, 1h” value is 1.20 ± 0.11 mm; the “%Inhibition of paw oedema, 3h” value was 22%; the “Paw thickness change mean ± SEM, 3h” value came to 1.30 ± 0.15 mm. Besides, in data set [1], the “%Inhibition of paw oedema, 5h” value is on record as 0% and the “Paw thickness change mean ± SEM, 5h” value is listed as 1.33 ± 0.08 mm. On ovine COX-1, this molecule returned an IC50 of 3450 nM.

In the case of `COc1cc(/C=C/C(=O)c2ccc(NC#N)cc2)cc(OC)c1OC` [Compound 7b, (ZE)-N-{4-[3–(3,4,5-Trimethoxyphenyl)acryloyl]phenyl}cyanamide], the melting point lay in the range of 109 to 111 °C. Also, at ovine COX-2, the 50% inhibitory concentration (IC50) came out at 240 nM and the “SI, COX-2 selectivity index (COX-1 IC50/COX-2 IC50)” value is reported as 14.66. Further, in data set [1], the “%Inhibition of paw oedema, 1h” value was 32%; the “Paw thickness change mean ± SEM, 1h” value came out at 1.08 ± 0.11 mm; the “%Inhibition of paw oedema, 3h” value was 43%; the “Paw thickness change mean ± SEM, 3h” value was 0.95 ± 0.17 mm. Also, in data set [1], the “%Inhibition of paw oedema, 5h” value is reported as 0% and the “Paw thickness change mean ± SEM, 5h” value stood at 1.33 ± 0.08 mm. On ovine COX-1, half-maximal inhibition (IC50) was put at 3520 nM.
